Assay results: patent EP0238060B1, “Cephalosporin derivatives, processes for their preparation and antibacterial agents” (Banyu Pharmaceutical Co., Ltd., priority 1986, dated 1987)
In brackets after ≈: the same amount, converted by molar mass.

How the values were obtained:
Assay in all cases: In vitro antibacterial activity, agar plate dilution method (MIC)
A.calcoaceticus No. 4 = format: cell-based; settings: Acinetobacter calcoaceticus; A.calcoaceticus No. 4; Mueller Hinton agar, inoculum 10⁶ CFU/ml, 37°C, 16 hours; read-out: Minimum Inhibitory Concentration (MIC: µg/ml)
Experimental: (§1) The in vitro antibacterial activities of the compounds of the present invention against various microorganisms, were measured by the following agar plate dilution method. One platinum loopfull of each test microorganism incubated overnight in Mueller Hinton broth, was inoculated to Mueller Hinton agar (inoculum size: l0⁶ CFU/ml). Such culture media containing various antibiotics in various concentrations were prepared. After incubation at 37°C for l6 hours, the minimum inhibitory concentrations (MIC: µg/ml) were measured. As comparative compounds, Cefotaxime, Ceftazidime and the compounds of Reference Examples l to 4 were employed.

C.freundii GN346/16 = format: cell-based; settings: Citrobacter freundii; C.freundii GN346/16; Mueller Hinton agar, inoculum 10⁶ CFU/ml, 37°C, 16 hours; read-out: Minimum Inhibitory Concentration (MIC: µg/ml)
Experimental: as §1

C.freundii GN346 = format: cell-based; settings: Citrobacter freundii; C.freundii GN346 (β-Lactamase-producing strain); Mueller Hinton agar, inoculum 10⁶ CFU/ml, 37°C, 16 hours; read-out: Minimum Inhibitory Concentration (MIC: µg/ml)
Experimental: as §1

E.cloacae 963 = format: cell-based; settings: Enterobacter cloacae; E.cloacae 963; Mueller Hinton agar, inoculum 10⁶ CFU/ml, 37°C, 16 hours; read-out: Minimum Inhibitory Concentration (MIC: µg/ml)
Experimental: as §1

E.cloacae Nek 39 = format: cell-based; settings: Enterobacter cloacae, NEK39; E.cloacae Nek 39 (β-Lactamase-producing strain); Mueller Hinton agar, inoculum 10⁶ CFU/ml, 37°C, 16 hours; read-out: Minimum Inhibitory Concentration (MIC: µg/ml)
Experimental: as §1

E.coli CSH(RE45) = format: cell-based; settings: Escherichia coli, 16 h, read-out: Minimum Inhibitory Concentration (MIC: µg/ml)
Experimental: as §1

E.coli CSH2 (RK1) = format: cell-based; settings: Escherichia coli, 16 h, read-out: Minimum Inhibitory Concentration (MIC: µg/ml)
Experimental: as §1

E.coli GN5482 = format: cell-based; settings: Escherichia coli; E.coli GN5482 (β-Lactamase-producing strain); Mueller Hinton agar, inoculum 10⁶ CFU/ml, 37°C, 16 hours; read-out: Minimum Inhibitory Concentration (MIC: µg/ml)
Experimental: as §1

E.coli NIHJ JC2 = format: cell-based; settings: Escherichia coli, NIHJJC2; E.coli NIHJ JC2; Mueller Hinton agar, inoculum 10⁶ CFU/ml, 37°C, 16 hours; read-out: Minimum Inhibitory Concentration (MIC: µg/ml)
Experimental: as §1

K.oxytoca GN10650 = format: cell-based; settings: Klebsiella oxytoca; K.oxytoca GN10650 (β-Lactamase-producing strain); Mueller Hinton agar, inoculum 10⁶ CFU/ml, 37°C, 16 hours; read-out: Minimum Inhibitory Concentration (MIC: µg/ml)
Experimental: as §1

K.pneumoniae No. 42 = format: cell-based; settings: Klebsiella pneumoniae; K.pneumoniae No. 42 (β-Lactamase-producing strain); Mueller Hinton agar, inoculum 10⁶ CFU/ml, 37°C, 16 hours; read-out: Minimum Inhibitory Concentration (MIC: µg/ml)
Experimental: as §1

K.pneumoniae PCI-602 = format: cell-based; settings: Klebsiella pneumoniae, PCI602; K.pneumoniae PCI-602; Mueller Hinton agar, inoculum 10⁶ CFU/ml, 37°C, 16 hours; read-out: Minimum Inhibitory Concentration (MIC: µg/ml)
Experimental: as §1

M.morganii GN5407 = format: cell-based; settings: Morganella morganii; M.morganii GN5407 (β-Lactamase-producing strain); Mueller Hinton agar, inoculum 10⁶ CFU/ml, 37°C, 16 hours; read-out: Minimum Inhibitory Concentration (MIC: µg/ml)
Experimental: as §1

P.vulgaris HX-19 = format: cell-based; settings: Proteus vulgaris, HX19; P.vulgaris HX-19; Mueller Hinton agar, inoculum 10⁶ CFU/ml, 37°C, 16 hours; read-out: Minimum Inhibitory Concentration (MIC: µg/ml)
Experimental: as §1

P.vulgaris No. 33 = format: cell-based; settings: Proteus vulgaris; P.vulgaris No. 33 (β-Lactamase-producing strain); Mueller Hinton agar, inoculum 10⁶ CFU/ml, 37°C, 16 hours; read-out: Minimum Inhibitory Concentration (MIC: µg/ml)
Experimental: as §1

Ps.aeruginosa AK 109 = format: cell-based; settings: Pseudomonas aeruginosa, AK109; Ps.aeruginosa AK 109; Mueller Hinton agar, inoculum 10⁶ CFU/ml, 37°C, 16 hours; read-out: Minimum Inhibitory Concentration (MIC: µg/ml)
Experimental: as §1

Ps.aeruginosa AKR17 = format: cell-based; settings: Pseudomonas aeruginosa; Ps.aeruginosa AKR17; Mueller Hinton agar, inoculum 10⁶ CFU/ml, 37°C, 16 hours; read-out: Minimum Inhibitory Concentration (MIC: µg/ml)
Experimental: as §1

Ps.aeruginosa IFO3445 = format: cell-based; settings: Pseudomonas aeruginosa; Ps.aeruginosa IFO3445; Mueller Hinton agar, inoculum 10⁶ CFU/ml, 37°C, 16 hours; read-out: Minimum Inhibitory Concentration (MIC: µg/ml)
Experimental: as §1

S.aureus 209P NIHJ-JC1 = format: cell-based; settings: Staphylococcus aureus; S.aureus 209P NIHJ-JC1; Mueller Hinton agar, inoculum 10⁶ CFU/ml, 37°C, 16 hours; read-out: Minimum Inhibitory Concentration (MIC: µg/ml)
Experimental: as §1

S.aureus BB5703 = format: cell-based; settings: Staphylococcus aureus; S.aureus BB5703; Mueller Hinton agar, inoculum 10⁶ CFU/ml, 37°C, 16 hours; read-out: Minimum Inhibitory Concentration (MIC: µg/ml)
Experimental: as §1

S.aureus JS1 = format: cell-based; settings: Staphylococcus aureus; S.aureus JS1 (β-Lactamase-producing strain); Mueller Hinton agar, inoculum 10⁶ CFU/ml, 37°C, 16 hours; read-out: Minimum Inhibitory Concentration (MIC: µg/ml)
Experimental: as §1

S.marcescens IAM 1184 = format: cell-based; settings: Serratia marcescens, IAM1184; S.marcescens IAM 1184; Mueller Hinton agar, inoculum 10⁶ CFU/ml, 37°C, 16 hours; read-out: Minimum Inhibitory Concentration (MIC: µg/ml)
Experimental: as §1

S.marcescens No. 16-2 = format: cell-based; settings: Serratia marcescens, NO.162; S.marcescens No. 16-2 (β-Lactamase-producing strain); Mueller Hinton agar, inoculum 10⁶ CFU/ml, 37°C, 16 hours; read-out: Minimum Inhibitory Concentration (MIC: µg/ml)
Experimental: as §1

Ps.cepacia 23 = format: cell-based, Pseudomonas cepacia; settings: Burkholderia cepacia; Ps.cepacia 23; Mueller Hinton agar, inoculum 10⁶ CFU/ml, 37°C, 16 hours; read-out: Minimum Inhibitory Concentration (MIC: µg/ml)
Experimental: as §1

Ps.maltophilia GN 12873 = format: cell-based, Pseudomonas maltophilia; settings: Stenotrophomonas maltophilia, GN12873; Ps.maltophilia GN 12873 (β-Lactamase-producing strain); Mueller Hinton agar, inoculum 10⁶ CFU/ml, 37°C, 16 hours; read-out: Minimum Inhibitory Concentration (MIC: µg/ml)
Experimental: as §1

Compound	MIC (A.calcoaceticus No. 4) [µg/mL]	MIC (C.freundii GN346/16) [µg/mL]	MIC (C.freundii GN346) [µg/mL]	MIC (E.cloacae 963) [µg/mL]	MIC (E.cloacae Nek 39) [µg/mL]	MIC (E.coli CSH(RE45)) [µg/mL]	MIC (E.coli CSH2 (RK1)) [µg/mL]	MIC (E.coli GN5482) [µg/mL]	MIC (E.coli NIHJ JC2) [µg/mL]	MIC (K.oxytoca GN10650) [µg/mL]	MIC (K.pneumoniae No. 42) [µg/mL]	MIC (K.pneumoniae PCI-602) [µg/mL]	MIC (M.morganii GN5407) [µg/mL]	MIC (P.vulgaris HX-19) [µg/mL]	MIC (P.vulgaris No. 33) [µg/mL]	MIC (Ps.aeruginosa AK 109) [µg/mL]	MIC (Ps.aeruginosa AKR17) [µg/mL]	MIC (Ps.aeruginosa IFO3445) [µg/mL]	MIC (S.aureus 209P NIHJ-JC1) [µg/mL]	MIC (S.aureus BB5703) [µg/mL]	other results
CC(C)(ON=C(C(=O)NC1C(=O)N2C(C(=O)[O-])=C(C[n+]3ccc4c(O)cccc4c3)CSC12)c1csc(N)n1)C(=O)O (stereo not drawn) [Reference Ex. 4, sodium 7-[2-(2-aminothiazol-4-yl)-2-(l-carboxylato-l-methylethoxyimino)acetamido]-3-(5-hydroxy-2-isoquinolinio)methyl-3-cephem-4-carboxylate, reference compound]	25	1.56	> 100	0.78	12.5	0.39	0.39	6.25	0.78	0.39	0.78	0.2	0.1	0.0125	0.1	6.25	> 100	6.25	12.5	100	MIC (S.aureus JS1): 100 µg/mL; MIC (S.marcescens IAM 1184): 0.2 µg/mL; MIC (S.marcescens No. 16-2): 6.25 µg/mL; MIC (Ps.cepacia 23): 1.56 µg/mL; MIC (Ps.maltophilia GN 12873): 50 µg/mL
CON=C(C(=O)NC1C(=O)N2C(C(=O)[O-])=C(C[n+]3ccc4cccc(O)c4c3)CS[C@H]12)c1csc(N)n1 (stereo partly drawn) [Reference Ex. 3, 7-[2-(2-aminothiazol-4-yl)-2-methoxyiminoacetamido]-3-(8-hydroxy-2-isoquinolinio)methyl-3-cephem-4-carboxylate, reference compound]	25 (≈ 46.2 µM)	0.1 (≈ 0.185 µM)	12.5 (≈ 23.1 µM)	0.05 (≈ 0.0925 µM)	0.78 (≈ 1.44 µM)	0.39 (≈ 0.721 µM)	0.025 (≈ 0.0462 µM)	0.39 (≈ 0.721 µM)	0.05 (≈ 0.0925 µM)	3.12 (≈ 5.77 µM)	0.1 (≈ 0.185 µM)	< 0.006	0.025 (≈ 0.0462 µM)	0.0125 (≈ 0.0231 µM)	0.05 (≈ 0.0925 µM)	50 (≈ 92.5 µM)	> 100	12.5 (≈ 23.1 µM)	0.78 (≈ 1.44 µM)	3.12 (≈ 5.77 µM)	MIC (S.aureus JS1): 25 µg/mL (≈ 46.2 µM); MIC (S.marcescens IAM 1184): 0.025 µg/mL (≈ 0.0462 µM); MIC (S.marcescens No. 16-2): 3.12 µg/mL (≈ 5.77 µM); MIC (Ps.cepacia 23): 6.25 µg/mL (≈ 11.6 µM); MIC (Ps.maltophilia GN 12873): > 100 µg/mL
CON=C(C(=O)NC1C(=O)N2C(C(=O)[O-])=C(C[n+]3ccc4c(O)cccc4c3)CS[C@H]12)c1csc(N)n1 (stereo partly drawn) [Reference Ex. 2, 7-[2-(2-aminothiazol-4-yl)-2-methoxyiminoacetamido]-3-(5-hydroxy-2-isoquinolinio)methyl-3-cephem-4-carboxylate, reference compound]	12.5 (≈ 23.1 µM)	0.1 (≈ 0.185 µM)	6.25 (≈ 11.6 µM)	0.025 (≈ 0.0462 µM)	0.78 (≈ 1.44 µM)	1.56 (≈ 2.89 µM)	0.025 (≈ 0.0462 µM)	0.2 (≈ 0.37 µM)	0.025 (≈ 0.0462 µM)	12.5 (≈ 23.1 µM)	0.1 (≈ 0.185 µM)	< 0.006	0.025 (≈ 0.0462 µM)	< 0.006	0.1 (≈ 0.185 µM)	3.12 (≈ 5.77 µM)	> 100	3.12 (≈ 5.77 µM)	0.39 (≈ 0.721 µM)	3.12 (≈ 5.77 µM)	MIC (S.aureus JS1): 6.25 µg/mL (≈ 11.6 µM); MIC (S.marcescens IAM 1184): 0.025 µg/mL (≈ 0.0462 µM); MIC (S.marcescens No. 16-2): 3.12 µg/mL (≈ 5.77 µM); MIC (Ps.cepacia 23): 6.25 µg/mL (≈ 11.6 µM); MIC (Ps.maltophilia GN 12873): > 100 µg/mL
